Literature values as cited in patent publication EP3628310A1, “PHARMACEUTICAL COMPOSITION COMPRISING SOLID DISPERSIONS OF AMORPHOUS CLADRIBINE AND PHARMACEUTICALLY ACCEPTABLE WATER SOLUBLE CARRIER” (Synbias Pharma AG, priority 2018, dated 2020).
Like-named read-outs stand apart in the source and are kept apart here.

calculated half time T1/2 (pH 1, 37°C): 22.2 min
2-CdA content (pH 1, after 2 h of heating to 37°C): 2%
2-CdA remains in solution (pH 2, 37°, after 6 h): 13%
calculated half time T1/2 (pH 2, 37°C): 96 min
SMILES: Nc1nc(Cl)nc2c1ncn2[C@H]1C[C@H](O)[C@@H](CO)O1 [Tablet 2-CdA, 2-chloro-2'-deoxyadenosine]
